Patent publication US8207172B2 (Bayer Intellectual Property GmbH, priority 2004, dated 2012)

Columns and labels:
[1] = tested on: BT474 (human breast carcinoma); test: In vitro tumor cell proliferation assay (Cell Titer-Glo luminescent cell viability), BT474; format: cell-based; details: BT-474, 72 h, BT474 cells, 72 hours of drug exposure, ATP luminescence readout, read-out: IC50, anti-proliferative activity (inhibition of cell proliferation)
Text: (§1) In vitro Tumor Cell Proliferation Assay
(§2) The tumor cell proliferation assay used to test the compounds of the present invention involves a readout called Cell Titer-Glow® Luminescent Cell Viability Assay developed by Promega® (Cunningham, B A “A Growing Issue: Cell Proliferation Assays, Modern kits ease quantification of cell growth” The Scientist 2001, 15(13), 26, and Crouch, S P et al., “The use of ATP bioluminescence as a measure of cell proliferation and cytotoxicity” Journal of Immunological Methods 1993, 160, 81-88), that measures inhibition of cell proliferation. Generation of a luminescent signal corresponds to the amount of ATP present, which is directly proportional to the number of metabolically active (proliferating) cells.
(§3) A431cells (human epidermoid carcinoma, ATCC […]) and BT474 (human breast carcinoma, ATCC […]) were plated at a density of 2.5×10^3 cells/well in 96 well black-clear bottom tissue culture plates in RPMI media with 10% Fetal Bovine Serum and incubated at 37° C. Twenty-four hours later, test compounds are added at a final concentration range from as high […] to as low 64 pM depend on the activities of the tested compounds in serial dilutions at a final DMSO concentration of 0.1%. Cells were incubated for 72 hours at 37° C. in complete growth media after addition of the test compound. After 72 hours of drug exposure, the plates were equilibrated to room temperature for approximately 30 min. Then, using a Promega Cell Titer Glo Luminescent® assay kit, lysis buffer containing 100 microliters of the enzyme luciferase and its substrate, luciferin mixture, was added to each well. The plates were mixed for 2 min on orbital shaker to ensure cell lysis and incubated for 10 min at room temperature to stabilize luminescence signal. The samples were read on VICTOR 2 using Luminescence protocol, and analyzed with Analyze5 software to generate IC50 values.

[2] = tested on: A431 cells (human epidermoid carcinoma); test: In vitro tumor cell proliferation assay (Cell Titer-Glo luminescent cell viability), A431; format: cell-based; details: A-431, 72 h, 72 hours of drug exposure, ATP luminescence readout, read-out: IC50, anti-proliferative activity (inhibition of cell proliferation)
Text: as §1, §2, §3

| Structure (SMILES) | IC50 [1] | IC50 [2] |
| --- | --- | --- |
| Fc1ccc(Nc2ncnc3sc4c(c23)CCc2nn(CCNCCN3CCCC3)cc2-4)cc1Cl [Example 18, N-(3-chloro-4-fluorophenyl)-2-{2-[(2-pyrrolidin-1-ylethyl)amino]ethyl}-4,5-dihydro-2H-pyrimido[5′,4′:4,5]thieno[2,3-e]indazol-6-amine] | ≤ 50 µM | ≤ 50 µM |
| CCN(CCOC)CCn1cc2c(n1)CCc1c-2sc2ncnc(Nc3ccc(F)c(Cl)c3)c12 [Example 24, N-(3-chloro-4-fluorophenyl)-2-{2-[ethyl(2-methoxyethyl)amino]ethyl}-4,5-dihydro-2H-pyrimido[5′,4′:4,5]thieno[2,3-e]indazol-6-amine] | ≤ 5 µM | ≤ 5 µM |
| COCCN1CCN(CCn2cc3c(n2)CCc2c-3sc3ncnc(Nc4ccc(F)c(Cl)c4)c23)CC1 [Example 25, N-(3-chloro-4-fluorophenyl)-2-{2-[4-(2-methoxyethyl)piperazin-1-yl]ethyl}-4,5-dihydro-2H-pyrimido[5′,4′:4,5]thieno[2,3-e]indazol-6-amine] | ≤ 5 µM | ≤ 5 µM |
| OCCN(CCO)CCn1cc2c(n1)CCc1c-2sc2ncnc(Nc3ccc(F)c(Cl)c3)c12 [Example 26, 2,2′-[(2-{6-[(3-chloro-4-fluorophenyl)amino]-4,5-dihydro-2H-pyrimido[5′,4′:4,5]thieno[2,3-e]indazol-2-yl}ethyl)imino]diethanol] | ≤ 5 µM | ≤ 5 µM |
| CC(C)(C)OC(=O)N1CCN(CCn2cc3c(n2)CCc2c-3sc3ncnc(Nc4ccc(F)c(Cl)c4)c23)CC1 [Example 27, tert-butyl 4-(2-{6-[(3-chloro-4-fluorophenyl)amino]-4,5-dihydro-2H-pyrimido[5′,4′:4,5]thieno[2,3-e]indazol-2-yl}ethyl)piperazine-1-carboxylate] | ≤ 5 µM | ≤ 5 µM |
| COC[C@H]1CCCN1CCn1cc2c(n1)CCc1c-2sc2ncnc(Nc3ccc(F)c(Cl)c3)c12 [Example 28, N-(3-chloro-4-fluorophenyl)-2-{2-[(2R)-2-(methoxymethyl)pyrrolidin-1-yl]ethyl}-4,5-dihydro-2H-pyrimido[5′,4′:4,5]thieno[2,3-e]indazol-6-amine] | ≤ 5 µM | ≤ 5 µM |
| OC[C@H]1CCCN1CCn1cc2c(n1)CCc1c-2sc2ncnc(Nc3ccc(F)c(Cl)c3)c12 [Example 29, [(2R)-1-(2-{6-[(3-chloro-4-fluorophenyl)amino]-4,5-dihydro-2H-pyrimido[5′,4′:4,5]thieno[2,3-e]indazol-2-yl}ethyl)pyrrolidin-2-yl]methanol] | ≤ 5 µM | ≤ 5 µM |
| O[C@H]1CCN(CCn2cc3c(n2)CCc2c-3sc3ncnc(Nc4ccc(F)c(Cl)c4)c23)C1 [Example 30, (3S)-1-(2-{6-[(3-chloro-4-fluorophenyl)amino]-4,5-dihydro-2H-pyrimido[5′,4′:4,5]thieno[2,3-e]indazol-2-yl}ethyl)pyrrolidin-3-ol] | ≤ 5 µM | ≤ 5 µM |
| COC[C@@H]1CCCN1CCn1cc2c(n1)CCc1c-2sc2ncnc(Nc3ccc(F)c(Cl)c3)c12 [Example 31, N-(3-chloro-4-fluorophenyl)-2-{2-[(2S)-2-(methoxymethyl)pyrrolidin-1-yl]ethyl}-4,5-dihydro-2H-pyrimido[5′,4′:4,5]thieno[2,3-e]indazol-6-amine] | ≤ 5 µM | ≤ 5 µM |
| OC[C@@H]1CCCN1CCn1cc2c(n1)CCc1c-2sc2ncnc(Nc3ccc(F)c(Cl)c3)c12 [Example 32, [(2S)-1-(2-{6-[(3-chloro-4-fluorophenyl)amino]-4,5-dihydro-2H-pyrimido[5′,4′:4,5]thieno[2,3-e]indazol-2-yl}ethyl)pyrrolidin-2-yl]methanol] | ≤ 5 µM | ≤ 5 µM |

Further lines, results first:

| IC50 [1] | IC50 [2] | Structure (SMILES) |
| --- | --- | --- |
| ≤ 1 µM | ≤ 5 µM | CN1CCN(CCn2cc3c(n2)CCc2c-3sc3ncnc(Nc4ccc(F)c(Cl)c4)c23)CC1 [Example 8, N-(3-chloro-4-fluorophenyl)-2-[2-(4-methylpiperazin-1-yl)ethyl]-4,5-dihydro-2H-pyrimido[5′,4′:4,5]thieno[2,3-e]indazol-6-amine] |
| ≤ 5 µM | ≤ 5 µM | Fc1ccc(Nc2ncnc3sc4c(c23)CCc2nn(CCN3CCCC3)cc2-4)cc1Cl [Example 9, N-(3-chloro-4-fluorophenyl)-2-(2-pyrrolidin-1-ylethyl)-4,5-dihydro-2H-pyrimido[5′,4′:4,5]thieno[2,3-e]indazol-6-amine] |
| ≤ 5 µM | ≤ 5 µM | COCCN(C)CCn1cc2c(n1)CCc1c-2sc2ncnc(Nc3ccc(F)c(Cl)c3)c12 [Example 10, N-(3-chloro-4-fluorophenyl)-2-{2-[(2-methoxyethyl)(methyl)amino]ethyl}-4,5-dihydro-2H-pyrimido[5′,4′:4,5]thieno[2,3-e]indazol-6-amine] |
| ≤ 5 µM | ≤ 5 µM | Fc1ccc(Nc2ncnc3sc4c(c23)CCc2nn(CCN3CCCCC3)cc2-4)cc1Cl [Example 11, N-(3-chloro-4-fluorophenyl)-2-(2-piperidin-1-ylethyl)-4,5-dihydro-2H-pyrimido[5′,4′:4,5]thieno[2,3-e]indazol-6-amine] |
| ≤ 5 µM | ≤ 5 µM | Fc1ccc(Nc2ncnc3sc4c(c23)CCc2nn(CCn3ccnc3)cc2-4)cc1Cl [Example 12, N-(3-chloro-4-fluorophenyl)-2-[2-(1H-imidazol-1-yl)ethyl]-4,5-dihydro-2H-pyrimido[5′,4′:4,5]thieno[2,3-e]indazol-6-amine] |
| ≤ 5 µM | ≤ 5 µM | CS(=O)(=O)CCNCCn1cc2c(n1)CCc1c-2sc2ncnc(Nc3ccc(F)c(Cl)c3)c12 [Example 13, N-(3-chloro-4-fluorophenyl)-2-(2-{[2-(methylsulfonyl)ethyl]amino}ethyl)-4,5-dihydro-2H-pyrimido[5′,4′:4,5]thieno[2,3-e]indazol-6-amine] |
| ≤ 5 µM | ≤ 5 µM | Fc1ccc(Nc2ncnc3sc4c(c23)CCc2nn(CCN3CCN(Cc5ccncc5)CC3)cc2-4)cc1Cl [Example 14, N-(3-chloro-4-fluorophenyl)-2-{2-[4-(pyridin-4-ylmethyl)piperazin-1-yl]ethyl}-4,5-dihydro-2H-pyrimido[5′,4′:4,5]thieno[2,3-e]indazol-6-amine] |
| ≤ 1 µM | ≤ 5 µM | CN(C)C1CCN(CCn2cc3c(n2)CCc2c-3sc3ncnc(Nc4ccc(F)c(Cl)c4)c23)C1 (stereo not drawn) [Example 15, N-(3-chloro-4-fluorophenyl)-2-{2-[3-(dimethylamino)pyrrolidin-1-yl]ethyl}-4,5-dihydro-2H-pyrimido[5′,4′:4,5]thieno[2,3-e]indazol-6-amine] |
| ≤ 5 µM | ≤ 5 µM | CN(C)CCNCCn1cc2c(n1)CCc1c-2sc2ncnc(Nc3ccc(F)c(Cl)c3)c12 [Example 16, N′-(2-{6-[(3-chloro-4-fluorophenyl)amino]-4,5-dihydro-2H-pyrimido[5′,4′:4,5]thieno[2,3-e]indazol-2-yl}ethyl)-N,N-dimethylethane-1,2-diamine] |
| ≤ 5 µM | ≤ 5 µM | CN(C)CCCCNCCn1cc2c(n1)CCc1c-2sc2ncnc(Nc3ccc(F)c(Cl)c3)c12 [Example 17, N′-(2-{6-[(3-chloro-4-fluorophenyl)amino]-4,5-dihydro-2H-pyrimido[5′,4′:4,5]thieno[2,3-e]indazol-2-yl}ethyl)-N,N-dimethylbutane-1,4-diamine] |
| ≤ 5 µM | ≤ 5 µM | OCCNCCn1cc2c(n1)CCc1c-2sc2ncnc(Nc3ccc(F)c(Cl)c3)c12 [Example 19, 2-[(2-{6-[(3-chloro-4-fluorophenyl)amino]-4,5-dihydro-2H-pyrimido[5′,4′:4,5]thieno[2,3-e]indazol-2-yl}ethyl)amino]ethanol] |
| ≤ 5 µM | ≤ 5 µM | COCCN(CCn1cc2c(n1)CCc1c-2sc2ncnc(Nc3ccc(F)c(Cl)c3)c12)C(C)C [Example 21, N-(3-chloro-4-fluorophenyl)-2-{2-[isopropyl(2-methoxyethyl)amino]ethyl}-4,5-dihydro-2H-pyrimido[5′,4′:4,5]thieno[2,3-e]indazol-6-amine] |
| ≤ 5 µM | ≤ 5 µM | Fc1ccc(Nc2ncnc3sc4c(c23)CCc2nn(CCN3CCN(c5cnccn5)CC3)cc2-4)cc1Cl [Example 22, N-(3-chloro-4-fluorophenyl)-2-[2-(4-pyrazin-2-ylpiperazin-1-yl)ethyl]-4,5-dihydro-2H-pyrimido[5′,4′:4,5]thieno[2,3-e]indazol-6-amine] |
| ≤ 5 µM | ≤ 5 µM | CCCN(CCOC)CCn1cc2c(n1)CCc1c-2sc2ncnc(Nc3ccc(F)c(Cl)c3)c12 [Example 23, N-(3-chloro-4-fluorophenyl)-2-{2-[(2-methoxyethyl)(propyl)amino]ethyl}-4,5-dihydro-2H-pyrimido[5′,4′:4,5]thieno[2,3-e]indazol-6-amine] |
